# Target: bovine cardiac myofibrils (full-length cardiac myosin ATPase in the native sarcomere) (Bos taurus (Bovine), UniProt Q9BE39)
# Assay: Skinned bovine cardiac myofibril ATPase assay (PK/LDH-coupled)
# Assay type: biochemical
# Conditions: Ca2+ activating to 75% of maximal rate; for CDMF75 IC15: concentration giving 15% inhibition; for IC50: read-out: CDMF75 IC50
# Method in brief: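 Triton-skinned bovine left-ventricle myofibrils (1 mg/mL) in PM 12 buffer (12 mM PIPES, 2 mM MgCl2, pH 6.8) with 50 μM ATP, 0.6 mM EGTA and CaCl2 set for 50% or 75% activation. Steady-state ATPase inhibition followed by PK/LDH-coupled NADH oxidation at 340 nm.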
# Chain of bovine cardiac myofibrils (full-length cardiac myosin ATPase in the native sarcomere) (Q9BE39 whole entry): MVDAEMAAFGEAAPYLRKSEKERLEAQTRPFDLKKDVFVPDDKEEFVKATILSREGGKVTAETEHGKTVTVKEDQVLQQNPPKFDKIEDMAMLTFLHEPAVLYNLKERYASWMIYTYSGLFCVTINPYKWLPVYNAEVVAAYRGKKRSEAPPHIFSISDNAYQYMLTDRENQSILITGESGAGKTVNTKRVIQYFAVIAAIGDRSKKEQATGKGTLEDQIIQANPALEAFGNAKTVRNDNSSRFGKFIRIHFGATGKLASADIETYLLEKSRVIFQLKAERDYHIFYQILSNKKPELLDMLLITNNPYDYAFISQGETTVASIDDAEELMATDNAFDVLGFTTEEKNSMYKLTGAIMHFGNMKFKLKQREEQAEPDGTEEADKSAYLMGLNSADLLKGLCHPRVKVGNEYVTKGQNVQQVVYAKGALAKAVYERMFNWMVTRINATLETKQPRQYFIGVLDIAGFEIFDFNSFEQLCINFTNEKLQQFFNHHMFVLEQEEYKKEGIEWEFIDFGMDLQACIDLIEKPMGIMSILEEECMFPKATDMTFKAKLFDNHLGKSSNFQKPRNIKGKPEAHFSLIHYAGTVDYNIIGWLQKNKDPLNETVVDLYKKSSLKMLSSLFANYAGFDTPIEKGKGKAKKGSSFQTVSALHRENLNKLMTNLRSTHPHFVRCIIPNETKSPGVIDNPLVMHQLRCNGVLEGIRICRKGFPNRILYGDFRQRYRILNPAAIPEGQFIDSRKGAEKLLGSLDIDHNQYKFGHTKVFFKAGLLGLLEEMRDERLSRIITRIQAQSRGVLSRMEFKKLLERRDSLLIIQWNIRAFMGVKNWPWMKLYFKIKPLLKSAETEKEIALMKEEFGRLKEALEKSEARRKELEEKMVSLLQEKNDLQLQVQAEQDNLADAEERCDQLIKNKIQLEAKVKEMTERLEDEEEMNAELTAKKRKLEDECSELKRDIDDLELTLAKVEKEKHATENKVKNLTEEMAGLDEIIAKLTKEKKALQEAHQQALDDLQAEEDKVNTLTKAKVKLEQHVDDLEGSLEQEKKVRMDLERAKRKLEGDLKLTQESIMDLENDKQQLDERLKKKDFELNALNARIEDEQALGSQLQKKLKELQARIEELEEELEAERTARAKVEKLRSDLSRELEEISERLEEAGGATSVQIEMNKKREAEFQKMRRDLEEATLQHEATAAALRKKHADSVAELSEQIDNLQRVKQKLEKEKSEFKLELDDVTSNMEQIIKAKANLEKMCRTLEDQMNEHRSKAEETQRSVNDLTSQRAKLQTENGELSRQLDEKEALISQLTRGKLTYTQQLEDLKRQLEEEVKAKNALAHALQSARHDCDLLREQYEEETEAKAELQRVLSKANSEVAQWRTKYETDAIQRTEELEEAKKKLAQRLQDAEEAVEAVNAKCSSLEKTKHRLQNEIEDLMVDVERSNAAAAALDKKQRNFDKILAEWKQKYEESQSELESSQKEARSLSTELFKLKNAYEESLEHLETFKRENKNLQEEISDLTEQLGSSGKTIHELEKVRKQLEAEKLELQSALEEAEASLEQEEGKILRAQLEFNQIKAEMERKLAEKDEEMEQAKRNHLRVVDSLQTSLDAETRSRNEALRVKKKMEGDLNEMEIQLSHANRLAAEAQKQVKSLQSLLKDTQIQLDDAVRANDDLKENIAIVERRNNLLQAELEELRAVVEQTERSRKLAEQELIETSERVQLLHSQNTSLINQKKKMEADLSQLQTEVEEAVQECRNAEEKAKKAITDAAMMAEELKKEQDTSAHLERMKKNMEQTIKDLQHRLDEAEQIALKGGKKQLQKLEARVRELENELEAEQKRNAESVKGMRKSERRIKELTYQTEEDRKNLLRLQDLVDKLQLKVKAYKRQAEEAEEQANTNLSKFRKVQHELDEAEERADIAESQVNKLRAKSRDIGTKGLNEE
# Chain of bovine cardiac myofibrils (full-length cardiac myosin ATPase in the native sarcomere) (P85100 whole entry partner): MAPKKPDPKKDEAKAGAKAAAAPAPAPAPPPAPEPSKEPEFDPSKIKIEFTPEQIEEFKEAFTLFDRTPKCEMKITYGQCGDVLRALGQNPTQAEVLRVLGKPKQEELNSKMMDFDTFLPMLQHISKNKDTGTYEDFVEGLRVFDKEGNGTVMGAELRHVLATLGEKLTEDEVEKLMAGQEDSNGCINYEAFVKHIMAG
# Chain of bovine cardiac myofibrils (full-length cardiac myosin ATPase in the native sarcomere) (Q3SZE5 whole entry partner): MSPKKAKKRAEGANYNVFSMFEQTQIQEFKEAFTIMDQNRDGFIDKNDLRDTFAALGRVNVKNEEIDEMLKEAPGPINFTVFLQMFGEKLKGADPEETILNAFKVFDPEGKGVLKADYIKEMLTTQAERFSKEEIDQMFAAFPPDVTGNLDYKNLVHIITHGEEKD
Compound,CDMF75 IC15 [µM],IC50 [µM]
"O=C(N[C@@H]1COc2cc(-c3noc(C(F)F)n3)ccc21)C(F)F [Compound 441, (S)-N-(6-(5-(difluoromethyl)-1,2,4-oxadiazol-3-yl)-2,3-dihydrobenzofuran-3-yl)-2,2-difluoroacetamide]",3.4,13.9
"CCc1nc(-c2ccc3c(c2)CC[C@H]3NC(=O)c2cnn(CC(OC)OC)c2)no1 [Compound 530, (R)-1-(2,2-dimethoxyethyl)-N-(5-(5-ethyl-1,2,4-oxadiazol-3-yl)-2,3-dihydro-1H-inden-1-yl)-1H-pyrazole-4-carboxamide]",2.6,8.9
"Cn1cnc(C(=O)NC2CCc3cc(-c4noc(C(F)F)n4)ccc32)n1 (stereo not shown) [Compound 118, N-(5-(5-(difluoromethyl)-1,2,4-oxadiazol-3-yl)-2,3-dihydro-1H-inden-1-yl)-1-methyl-1H-1,2,4-triazole-3-carboxamide]",19.3,> 39.2
"CCc1nc(-c2ccc3c(c2)CC[C@H]3NC(=O)c2cnn(CC(O)CO)c2)no1 (stereo partly drawn) [Compound 553, N-{(1R)-5-(5-ethyl(1,2,4-oxadiazol-3-yl))indanyl][1-(2,3-dihydroxypropyl)pyrazol-4-yl]carboxamide]",1.2,5.1
"CCc1nc(-c2ccc3c(c2)CCC[C@H]3NC(=O)c2cnn(C)c2)no1 [Compound 517, (R)—N-(6-(5-ethyl-1,2,4-oxadiazol-3-yl)-1,2,3,4-tetrahydronaphthalen-1-yl)-1-methyl-1H-pyrazole-4-carboxamide]",2.2,9.7
"Cc1nc(-c2ccc3c(c2)CCC3NC(=O)c2ccnc(O)c2)no1 (stereo not shown) [Compound 43, 2-hydroxy-N-(5-(5-methyl-1,2,4-oxadiazol-3-yl)-2,3-dihydro-1H-inden-1-yl)isonicotinamide]",4.3,14.1
"Cc1nc(-c2ccc3c(c2)CCC3NC(=O)c2ccnn2C)no1 (stereo not shown) [Compound 65, 1-methyl-N-(5-(5-methyl-1,2,4-oxadiazol-3-yl)-2,3-dihydro-1H-inden-1-yl)-1H-pyrazole-5-carboxamide]",0.8,3
"Cc1cc(C(=O)N[C@@H]2COc3cc(-c4cc(C)on4)ccc32)ccn1 [Compound 430, (S)-2-methyl-N-(6-(5-methylisoxazol-3-yl)-2,3-dihydrobenzofuran-3-yl)isonicotinamide]",1.0,3.2
"CCc1nc(-c2ccc3c(c2)CC[C@H]3NC(=O)c2cccc(CCO)c2)no1 [Compound 659, (R)-N-(5-(5-ethyl-1,2,4-oxadiazol-3-yl)-2,3-dihydro-1H-inden-1-yl)-3-(2-hydroxyethyl)benzamide]",0.5,1.7
"CCc1nc(-c2ccc3c(c2)CC[C@H]3NC(=O)c2ccncn2)no1 [Compound 630, (R)-N-(5-(5-ethyl-1,2,4-oxadiazol-3-yl)-2,3-dihydro-1H-inden-1-yl)pyrimidine-4-carboxamide]",0.5,1.8
"CCc1nc(-c2ccc3c(c2)OCC[C@H]3NC(=O)c2ccnn2C)no1 [Compound 537, (R)-N-(7-(5-ethyl-1,2,4-oxadiazol-3-yl)chroman-4-yl)-1-methyl-1H-pyrazole-5-carboxamide]",0.4,1.8
"Cc1ncccc1C(=O)NC1CCc2cc(-c3noc(C(F)F)n3)ccc21 (stereo not shown) [Compound 39, N-(5-(5-(difluoromethyl)-1,2,4-oxadiazol-3-yl)-2,3-dihydro-1H-inden-1-yl)-2-methylnicotinamide]",31.0,> 39.2
"CCc1noc(-c2ccc3c(c2)CC[C@H]3NC(=O)c2cnn(C)c2)n1 [Compound 254, (R)-N-(5-(3-ethyl-1,2,4-oxadiazol-5-yl)-2,3-dihydro-1H-inden-1-yl)-1-methyl-1H-pyrazole-4-carboxamide]",1.3,4.9
"CCc1nc(-c2ccc3c(c2)CC[C@H]3NC(=O)c2ccc(=O)n(CCOC)c2)no1 [Compound 606, (R)-N-(5-(5-ethyl-1,2,4-oxadiazol-3-yl)-2,3-dihydro-1H-inden-1-yl)-1-(2-methoxyethyl)-6-oxo-1,6-dihydropyridine-3-carboxamide]",4.6,22.6
"Cc1n[nH]cc1C(=O)N[C@@H]1CCc2cc(-c3noc(C4CCC4)n3)ccc21 [Compound 399, (R)-N-(5-(5-cyclobutyl-1,2,4-oxadiazol-3-yl)-2,3-dihydro-1H-inden-1-yl)-3-methyl-1H-pyrazole-4-carboxamide]",0.3,1
"Cc1cc(C(=O)NC2CCc3cc(-c4noc(C)n4)ccc32)on1 (stereo not shown) [Compound 34, 3-methyl-N-(5-(5-methyl-1,2,4-oxadiazol-3-yl)-2,3-dihydro-1H-inden-1-yl)isoxazole-5-carboxamide]",2.1,8.1

Compound,CDMF75 IC15 [µM],IC50 [µM]
"[2H]C([2H])([2H])c1noc(-c2ccc3c(c2)CC[C@H]3NC(=O)c2ccnn2C)n1 [Compound 273, (R)-1-methyl-N-(5-(3-(methyl-d3)-1,2,4-oxadiazol-5-yl)-2,3-dihydro-1H-inden-1-yl)-1H-pyrazole-5-carboxamide]",0.7,2.4
"Cc1cc(C(=O)N[C@@H]2CCc3cc(-c4cc(C(F)F)on4)ccc32)ccn1 [Compound 169, (R)-N-(5-(5-(difluoromethyl)isoxazol-3-yl)-2,3-dihydro-1H-inden-1-yl)-2-methylisonicotinamide]",0.5,1.8
"CCc1nc(-c2ccc3c(c2)C[C@H](O)[C@H]3NC(=O)c2cnn(C)c2)no1 [Compound 495, N-((1S,2S)-5-(5-ethyl-1,2,4-oxadiazol-3-yl)-2-hydroxy-2,3-dihydro-1H-inden-1-yl)-1-methyl-1H-pyrazole-4-carboxamide]",10.0,39.2
"CCc1nc(-c2ccc3c(c2)CC[C@H]3NC(=O)c2cc(C(C)O)ccn2)no1 (stereo partly drawn) [Compound 721, N-((R)-5-(5-ethyl-1,2,4-oxadiazol-3-yl)-2,3-dihydro-1H-inden-1-yl)-4-(1-hydroxyethyl)picolinamide]",1.5,6.7
"Cc1ncc(C(=O)N[C@@H]2COc3cc(-c4noc(C(F)F)n4)ccc32)o1 [Compound 206, (S)-N-(6-(5-(difluoromethyl)-1,2,4-oxadiazol-3-yl)-2,3-dihydrobenzofuran-3-yl)-2-methyloxazole-5-carboxamide]",0.7,2.3
"CC(C)c1nc(-c2ccc3c(c2)CC[C@H]3NC(=O)c2nn[nH]n2)no1 [Compound 499, (R)-N-(5-(5-isopropyl-1,2,4-oxadiazol-3-yl)-2,3-dihydro-1H-inden-1-yl)-2H-tetrazole-5-carboxamide]",2.4,39.2
"CCc1nc(-c2ccc3c(c2)CC[C@H]3NC(=O)c2ccn(CCO)n2)no1 [Compound 608, (R)-N-(5-(5-ethyl-1,2,4-oxadiazol-3-yl)-2,3-dihydro-1H-inden-1-yl)-1-(2-hydroxyethyl)-1H-pyrazole-3-carboxamide]",1.2,4.6
"[2H]C([2H])([2H])c1nc(-c2ccc3c(c2)OC[C@H]3NC(=O)c2cnn(C)c2C)no1 [Compound 269, (S)-1,5-dimethyl-N-(6-(5-(methyl-d3)-1,2,4-oxadiazol-3-yl)-2,3-dihydrobenzofuran-3-yl)-1H-pyrazole-4-carboxamide]",1.1,3.5
"Cc1cc(C(=O)NC2COc3cc(-c4noc(C)n4)ccc32)ccn1 (stereo not shown) [Compound 18, 2-methyl-N-(6-(5-methyl-1,2,4-oxadiazol-3-yl)-2,3-dihydrobenzofuran-3-yl)isonicotinamide]",1.1,6.8
"Cn1cc(C(=O)N[C@@H]2CCc3cc(-c4noc(C(F)F)n4)ccc32)ccc1=O [Compound 644, (R)-N-(5-(5-(difluoromethyl)-1,2,4-oxadiazol-3-yl)-2,3-dihydro-1H-inden-1-yl)-1-methyl-6-oxo-1,6-dihydropyridine-3-carboxamide]",1.5,5.9
"CCc1cc(-c2ccc3c(c2)OC[C@H]3NC(=O)c2ccnn2C)no1 [Compound 421, (S)-N-(6-(5-ethylisoxazol-3-yl)-2,3-dihydrobenzofuran-3-yl)-1-methyl-1H-pyrazole-5-carboxamide]",0.3,0.8
"O=C(N[C@@H]1CCc2cc(-c3noc(C4CC4)n3)ccc21)OC1CCCC1 [Compound 328, cyclopentyl (R)-(5-(5-cyclopropyl-1,2,4-oxadiazol-3-yl)-2,3-dihydro-1H-inden-1-yl)carbamate]",1.2,> 39.2
"O=C(N[C@@H]1CCc2cc(-c3noc(C4CC4)n3)ccc21)OCC1CC1 [Compound 326, cyclopropylmethyl (R)-(5-(5-cyclopropyl-1,2,4-oxadiazol-3-yl)-2,3-dihydro-1H-inden-1-yl)carbamate]",0.6,2.4
"CCc1nc(-c2ccc3c(c2)OC[C@H]3NC(=O)N2CC[C@@H](F)C2)no1 [Compound 743, (R)-N-((S)-6-(5-ethyl-1,2,4-oxadiazol-3-yl)-2,3-dihydrobenzofuran-3-yl)-3-fluoropyrrolidine-1-carboxamide]",7.4,36.7
"CC(C)NC(=O)NC1CCc2cc(-c3noc(C(F)F)n3)ccc21 (stereo not shown) [Compound 14, 1-(5-(5-(difluoromethyl)-1,2,4-oxadiazol-3-yl)-2,3-dihydro-1H-inden-1-yl)-3-isopropylurea]",39.2,> 39.2
"COCc1nc(-c2ccc3c(c2)OC[C@H]3NC(=O)c2ccnc(CO)c2)no1 [Compound 714, (S)-2-(hydroxymethyl)-N-(6-(5-(methoxymethyl)-1,2,4-oxadiazol-3-yl)-2,3-dihydrobenzofuran-3-yl)isonicotinamide]",1.4,5.5

# Reference: patent US12065436B2, “Cardiac sarcomere inhibitors” (Cytokinetics, Inc., priority 2018, dated 2024)
